From US6512007B1, “Use of galiella lactone” (Bayer Aktiengesellschaft, priority 2000, dated 2003)

Tested on: IL-6-induced and Stat3-mediated SEAP synthesis
Experiment: Inhibition of IL-6- and Stat3-mediated SEAP reporter gene expression in HepG2 cells
Assay type: cell-based
Settings: Homo sapiens; HepG2, induction with IL-6 10 ng/ml, 24 h; read-out: concentration for half-maximal SEAP synthesis inhibition (IC50)
Method: The following bioassay was carried out for fundamental exemplary experiments for detecting the inhibition of IL-6- and Stat3-mediated gene expression:
The initial vector used was the vector pTK/SEAP (Biochem. Biophys. Res. Commun., 1996, 226: 214-21) (see FIG. 1) which contains the gene of secreted alkaline phosphatase (SEAP) as reporter gene. This vector was linearized with the restriction enzyme Nhel and then dephosphorylated. The following oligonucleotides
which contain a binding site for Stat3 and Stat1 proteins (cf. Proc. Natl. Acad. Sci. USA, 1995, 92: 3041-5) were phosphorylated, ligated and precipitated with ethanol. […]
The HepG2 cells were cultivated in a moist atmosphere with 5% CO2 at 37° C. in 50 ml of DMEM (Gibco BRL, Life Technologies GmbH. Dieselstr, 5, 76344 Eggenstein) with 10% fetal calf serum, and penicillin/streptomycin (100 iu) in 600 ml cell culture bottles. […] The cell count was determined using a counting chamber and was adjusted to 6-8×10^6 cells/ml. […]
Cytotoxic effects of the compounds on the cells were investigated by microscopy after 24 h. Likewise after 24 h. the SEAP activity was determined using the Phospha-Light™ chemoluminescence assay (Perkins-Elmer Applied Biosystems, Langen) and, under the chosen conditions, is directly proportional to the SEAP concentration in the analysed sample. […]

IC50: 50 to 100 nM
Structure (SMILES): C[C@H]1C=C2C(=O)O[C@H]3CC[C@@H](C1)[C@@]23O [galiella lactone]
